Reference: US20250320496A1, “MODULATION OF ABCB11 GENE TRANSCRIPTION USING ANTISENSE OLIGONUCLEOTIDES TARGETING REGULATORY RNAS” (CAMP4 Therapeutics Corporation, priority 2022, published 2025)
Strand notation (5' to 3'): a small letter for the sugar, then the base; units joined by * are phosphorothioate-linked, units joined directly phosphodiester-linked; [ ] holds rarer units or linkages, { } end groups; capitals alone tell only the bases. e = 2'-O-(2-methoxyethyl) (MOE); [5mC] = 5-methylcytosine; d = 2'-deoxy (DNA)

Test system: human ABCB11 mRNA
Assay: ASO treatment of primary human hepatocytes (PHH), ABCB11 mRNA by RT-qPCR normalized to B2M
Format: cell-based
Parameters: ABCB11 mRNA, dose titration: unit of the concentration uncertain
Conditions: for ABCB11 mRNA FC (5 μM ASO vs. UNT): primary human hepatocytes, normalized to untreated PHHs (UNT)
Description: Primary human hepatocytes (PHH) were thawed using Lonza Human Cryopreserved Hepatocyte Thawing Medium and plated in 96-well collagen-coated plates (5.5-6.0×10^4 cells per well). Four hours later, the media was replaced with sterile-filtered QualGro™ Hepatocyte Culture Medium (BioIVT) containing antibiotic supplement, 0.3 mg/ml Matrigel® matrix (Corning®), and ASO at the desired concentration (e.g., 1.25 μM, 2.5 μM, 5 μM, or 10 μM). After 72 hrs., cells were harvested by aspirating media, washing once with phosphate-buffered saline (PBS), and lysed with 150 μl of Buffer RLT lysis buffer (Qiagen®). Plates were frozen at-80° C. during cell lysis. After thawing, total RNA was isolated using the Qiagen RNEasy kit as instructed by manufacturer. cDNA (random-primed) was synthesized from 10 μl of RNA using the LifeTech High Capacity cDNA Reverse Transcription kit. 2 μl of cDNA was used for reverse transcription-quantitative PCR (RT-qPCR) analyses using standard Taqman” reagents from Applied Biosystems™ to measure ABCB11 and CYP7A1 gene expression. Gene expression data was normalized to the housekeeper gene, beta-2-microglobulin (B2M).
To assess the ability of ASOs targeting ABCB11 regRNAs to modulate the expression of human ABCB11, 195 ASOs targeting the human ABCB11 regRNAs were synthesized. These initial ASOs were screened in PHHs at 5 μM to determine their efficacy in increasing human ABCB11 mRNA using quantitative PCR. This initial screen identified 10 ASOs that induced increased expression of ABCB11 mRNA by more than 1.5-fold (as compared to untreated PHHs).

| Substance | ABCB11 mRNA FC (5 μM ASO vs. UNT) [fold change] | ABCB11 mRNA, dose titration (PHHs, CO-3986 and CO-4529 tested at 2.5 (unit uncertain), 5 μM, and 10 μM) |
| --- | --- | --- |
| CO-4488 (antisense eA*eA*e[5mC]*eA*eT*eG*eT*e[5mC]*eA*eG*eA*e[5mC]*eA*eG*eT*eA*eG*eT*eT*e[5mC]) | 1.084 |  |
| CO-4489 (antisense e[5mC]*eA*e[5mC]*eA*eG*eA*eG*eT*eG*e[5mC]*e[5mC]*eA*eA*eG*eG*eA*eG*eT*eT*eA) | 1.083 |  |
| CO-4490 (antisense e[5mC]*eG*eA*eG*eA*eA*eA*eA*eT*eG*eA*eG*eG*eT*eA*e[5mC]*eA*eT*eG*eG) | 1.158 |  |
| CO-4491 (antisense eG*eA*eG*eG*eT*eT*eG*eA*e[5mC]*eA*eA*eA*eT*eA*eG*eG*eT*eG*eT*eG) | 1.101 |  |
| CO-4492 (antisense eG*eA*eT*eT*eT*eA*eA*eA*eG*eG*eA*e[5mC]*eT*eG*e[5mC]*eA*eT*eG*eG*e[5mC]) | 1.192 |  |
| CO-4493 (antisense eA*eT*eG*eG*eT*eG*eA*eG*eA*eG*eT*eG*eT*eG*eG*eT*eT*e[5mC]*eA*eA) | 1.178 |  |
| CO-4494 (antisense eG*e[5mC]*eA*eG*eG*eA*eT*eG*eA*eA*eG*eT*eT*eT*eA*e[5mC]*eA*eA*eG*eG) | 1.12 |  |
| CO-4495 (antisense eT*eG*eG*eT*eA*eT*e[5mC]*e[5mC]*eA*eT*eT*e[5mC]*eA*e[5mC]*eA*eA*eG*eG*eT*eG) | 1.07 |  |
| CO-4496 (antisense eG*eT*eA*e[5mC]*eT*eA*eG*eA*e[5mC]*eT*e[5mC]*eT*eG*e[5mC]*e[5mC]*eT*eG*eT*eG*eT) | 0.984 |  |
| CO-4497 (antisense eG*eG*eT*eG*eT*eT*eG*eA*eG*eA*eA*e[5mC]*eT*eA*eG*eA*eA*eT*eA*eT) | 1.024 |  |
| CO-4498 (antisense eG*eT*e[5mC]*e[5mC]*e[5mC]*eT*eG*eT*eG*eG*eT*eT*eA*e[5mC]*e[5mC]*eT*eA*eA*eA*eG) | 0.934 |  |
| CO-4499 (antisense eA*eA*eG*eG*eA*eA*eG*eG*eT*e[5mC]*eT*eA*eG*e[5mC]*eG*eG*eA*eG*eG*eT) | 1.202 |  |
| CO-4500 (antisense eA*eG*eA*e[5mC]*eT*eT*eT*eG*eG*e[5mC]*e[5mC]*eA*eG*eG*e[5mC]*eA*eA*eG*eA*e[5mC]) | 1.109 |  |
| CO-4501 (antisense eG*e[5mC]*eA*eT*eG*eG*eT*eA*eG*e[5mC]*eT*eA*eG*eT*eG*eA*eT*eA*eA*eT) | 1.023 |  |
| CO-4502 (antisense eA*eA*eA*eT*eGeT*eT*eG*eG*e[5mC]*e[5mC]e[5mC]*eT*eT*eG*eA*eG*eG*eA*eG) | 1.142 |  |
| CO-4503 (antisense eA*eT*eT*eG*eT*eA*eG*eG*eT*eG*e[5mC]eT*eG*e[5mC]*eG*eG*eG*eT*eA*eT) | 1.202 |  |
| CO-4504 (antisense eG*eT*eG*eT*e[5mC]*eT*eA*eT*eT*eT*eG*eG*eT*eA*eT*e[5mC]*eA*eG*eA*e[5mC]) | 1.232 |  |
| CO-4505 (antisense eG*eA*eG*e[5mC]*eA*e[5mC]*eA*e[5mC]*eA*eT*eT*e[5mC]*eA*e[5mC]*eT*e[5mC]*e[5mC]*eA*eT*eT) | 1.011 |  |
| CO-4506 (antisense eT*eG*e[5mC]*eA*eT*eT*eG*e[5mC]*eA*eT*eG*eT*eT*eG*eA*eG*e[5mC]*eT*eG*eG) | 1.169 |  |
| CO-4507 (antisense eG*eA*eA*eG*eA*eA*eT*eG*eG*eG*eA*eG*e[5mC]*eA*eA*eT*e[5mC]*e[5mC]*eG*e[5mC]) | 0.992 |  |
| CO-4508 (antisense eG*eT*eA*eG*eG*eA*eA*eG*eT*eT*eG*eA*eA*eT*eG*eA*eG*eT*eT*eG) | 1.185 |  |
| CO-4509 (antisense eT*eG*eG*eA*eT*eG*eT*eA*eG*eA*eT*eG*eA*eA*eT*eG*eG*e[5mC]*eA*eA) | 1.233 |  |
| CO-4510 (antisense eG*e[5mC]*e[5mC]*eA*e[5mC]*eA*e[5mC]*eG*eT*eT*eT*e[5mC]*eT*eT*eA*eT*eT*eG*e[5mC]*eG) | 1.084 |  |

| Substance | ABCB11 mRNA FC (5 μM ASO vs. UNT) [fold change] | ABCB11 mRNA, dose titration (PHHs, CO-3986 and CO-4529 tested at 2.5 (unit uncertain), 5 μM, and 10 μM) |
| --- | --- | --- |
| CO-4511 (antisense eG*eT*eG*eG*eG*eA*eG*eT*eG*eG*eT*eA*eA*eG*eA*eT*eT*eA*eG*e[5mC]) | 1.182 |  |
| CO-4512 (antisense eA*eA*e[5mC]*eG*eGeAeAeG*eG*eGeTeT*eAeA*eA*eG*eG*eT*eA*eT) | 1.087 |  |
| CO-4514 (antisense eG*e[5mC]*eG*eG*eG*eA*eT*eT*eA*eG*eA*eT*eG*eA*eG*eG*eT*e[5mC]*eT*eA) | 1.175 |  |
| CO-4515 (antisense eG*e[5mC]*e[5mC]*e[5mC]*eA*eA*eA*eT*eG*eA*eG*eG*eT*eG*eA*eT*eA*e[5mC]*eA*eA) | 0.978 |  |
| CO-4516 (antisense eA*eT*eG*eA*e[5mC]*eA*eT*eG*eA*eT*eA*eG*e[5mC]*eA*e[5mC]*e[5mC]*e[5mC]*eA*eA*e[5mC]) | 1.033 |  |
| CO-4517: parent ASO targeting a human ABCB11 regRNA, chemically modified to CO-7141 etc. (antisense e[5mC]*eT*eT*eA*eG*eG*eA*eG*eG*eA*eT*eT*eA*eT*eT*eT*eA*eA*e[5mC]*e[5mC]) | 0.914 |  |
| CO-4518 (antisense e[5mC]*eT*eA*e[5mC]*eT*eA*eG*eT*eT*eG*eT*eT*eA*e[5mC]*eA*e[5mC]*e[5mC]*eT*eT*eA) | 0.981 |  |
| CO-4519 (antisense eA*eG*eA*e[5mC]*eT*eG*eG*e[5mC]*eA*eT*eGeT*eG*eG*e[5mC]*eT*eT*e[5mC]*eA*e[5mC]) | 1.061 |  |
| CO-4520 (antisense eG*eG*eA*eA*eG*eA*eA*eG*eG*eT*eT*eA*eG*e[5mC]*eA*e[5mC]*eA*eG*eA*e[5mC]) | 0.945 |  |
| CO-4521 (antisense eG*e[5mC]*eA*eT*eT*eT*e[5mC]*eA*eG*eA*eG*e[5mC]*eA*e[5mC]*eA*eG*eA*eG*eT*eG) | 1.092 |  |
| CO-4522 (antisense e[5mC]*eA*e[5mC]*eT*eG*eG*e[5mC]*e[5mC]*e[5mC]*eA*eT*e[5mC]*eA*eA*eT*eT*eG*e[5mC]*eA*eT) | 1.027 |  |
| CO-4523 (antisense eT*e[5mC]*eT*eG*e[5mC]*eA*eA*eA*eT*eT*eA*eA*eG*eA*eA*eG*e[5mC]*eA*e[5mC]eT) | 1.037 |  |
| CO-4524 (antisense e[5mC]*eA*eG*eA*eG*eA*eA*eA*e[5mC]*e[5mC]*eT*eA*eA*eA*eA*eT*eT*eG*eA*eG) | 1.243 |  |
| CO-4525 (antisense eA*e[5mC]*e[5mC]*e[5mC]*eA*e[5mC]*eA*eT*eA*eG*eT*eT*eG*eT*eA*e[5mC]*eT*e[5mC]*eT*e[5mC]) | 0.995 |  |
| CO-4526 (antisense eG*e[5mC]*eT*eT*eG*eT*eG*eA*eT*eG*eT*e[5mC]*e[5mC]*eA*eG*eA*eT*eG*eA*e[5mC]) | 1.048 |  |
| CO-4527 (antisense eG*eA*eG*e[5mC]*eA*eT*e[5mC]*eA*eG*eG*eT*eA*e[5mC]*e[5mC]*eA*eT*eG*eA*e[5mC]*eA) | 0.97 |  |
| CO-4528 (antisense e[5mC]*eT*eG*eG*eG*eA*eT*eA*eG*eG*eG*eT*eG*eG*eA*eT*e[5mC]*eT*eA*e[5mC]) | 0.883 |  |
| CO-4529: ASO targeting eRNA RR64 of human ABCB11 (antisense eG*eT*eG*eG*eA*eG*e[5mC]*eA*eA*eA*e[5mC]*eT*eA*eG*eG*e[5mC]eA*e[5mC]*eT*eG) | 1.05 | dose-dependent increase |
| CO-6669 (antisense eG*eT*eT*eT*eA*eG*eT*eT*eG*eA*e[5mC]*eT*eG*e[5mC]*eA*eG*eA*eG*eG*eG) | 1.291 |  |
| CO-6670 (antisense eT*eA*eG*eT*eT*eT*eA*eG*eT*eT*eG*eA*e[5mC]*eT*eG*e[5mC]*eA*eG*eA*eG) | 1.157 |  |
| CO-6671 (antisense eT*eT*e[5mC]*eT*eG*eT*eA*eG*eT*eT*eT*eA*eG*eT*eT*eG*eA*e[5mC]*eT*eG) | 1.163 |  |
| CO-6672 (antisense eA*eG*eG*eA*e[5mC]*eA*e[5mC]*eA*eA*eT*eT*eT*e[5mC]*eT*eG*eT*eA*eG*eT*eT) | 1.391 |  |
| CO-6673 (antisense eG*eA*eA*eG*eG*dA*d[5mC]*dA*d[5mC]*dA*dA*dT*dT*dT*d[5mC]*eT*eG*eT*eA*eG) | 1.313 |  |
